Laboratory results: US20250064941A1, “SIGLEC LIGANDS, CONJUGATES, AND METHODS OF USE THEREOF” (Osprey Biopharmaceuticals, Inc., priority 2023, published 2025)

Tests used:
[1] = biological target: T1, mouse Siglec-2-Fc-Avi (CD22) (Mus musculus, UniProt P35329); experiment: SPR binding affinity to mouse CD22; conditions: steady-state analysis
T1 construct: made in house
T1 sequence (P35329 22-708 limits assumed): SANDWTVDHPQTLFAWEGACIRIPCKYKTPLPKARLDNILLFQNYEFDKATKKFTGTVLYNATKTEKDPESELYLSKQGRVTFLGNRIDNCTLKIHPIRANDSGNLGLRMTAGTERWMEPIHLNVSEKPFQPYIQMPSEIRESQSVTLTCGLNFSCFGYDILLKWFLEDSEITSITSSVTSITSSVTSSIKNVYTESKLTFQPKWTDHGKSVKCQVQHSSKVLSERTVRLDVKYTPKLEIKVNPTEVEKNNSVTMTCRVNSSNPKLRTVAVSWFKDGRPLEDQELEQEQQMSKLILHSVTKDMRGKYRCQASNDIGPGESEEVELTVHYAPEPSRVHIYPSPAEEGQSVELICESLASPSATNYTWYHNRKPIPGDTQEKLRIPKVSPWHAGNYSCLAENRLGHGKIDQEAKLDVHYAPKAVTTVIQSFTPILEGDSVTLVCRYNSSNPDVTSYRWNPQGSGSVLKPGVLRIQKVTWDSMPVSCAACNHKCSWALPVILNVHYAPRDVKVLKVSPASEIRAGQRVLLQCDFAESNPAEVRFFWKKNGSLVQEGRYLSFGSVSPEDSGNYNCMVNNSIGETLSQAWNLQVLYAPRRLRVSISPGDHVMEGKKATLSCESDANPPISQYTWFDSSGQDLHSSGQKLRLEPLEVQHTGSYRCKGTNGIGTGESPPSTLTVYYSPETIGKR
Outline: (§1)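 Steady-state fits gave the affinities. Before capture on a streptavidin surface, biotinylated CD22 had native sialic acids stripped (SialoExo, 4 hours, 37° C.). Running buffer: 10 mM HEPES pH 7.5, 150 mM NaCl, 0.05% Tween-20, 1% DMSO, with DMSO solvent correction.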

[2] = biological target: T2, human Siglec-2/CD22 protein (Homo sapiens, UniProt P20273); experiment: SPR binding affinity to human CD22; conditions: steady-state analysis
T2 construct: purchased Acro Biosystems SI2-H82E3
T2 sequence (P20273 20-847): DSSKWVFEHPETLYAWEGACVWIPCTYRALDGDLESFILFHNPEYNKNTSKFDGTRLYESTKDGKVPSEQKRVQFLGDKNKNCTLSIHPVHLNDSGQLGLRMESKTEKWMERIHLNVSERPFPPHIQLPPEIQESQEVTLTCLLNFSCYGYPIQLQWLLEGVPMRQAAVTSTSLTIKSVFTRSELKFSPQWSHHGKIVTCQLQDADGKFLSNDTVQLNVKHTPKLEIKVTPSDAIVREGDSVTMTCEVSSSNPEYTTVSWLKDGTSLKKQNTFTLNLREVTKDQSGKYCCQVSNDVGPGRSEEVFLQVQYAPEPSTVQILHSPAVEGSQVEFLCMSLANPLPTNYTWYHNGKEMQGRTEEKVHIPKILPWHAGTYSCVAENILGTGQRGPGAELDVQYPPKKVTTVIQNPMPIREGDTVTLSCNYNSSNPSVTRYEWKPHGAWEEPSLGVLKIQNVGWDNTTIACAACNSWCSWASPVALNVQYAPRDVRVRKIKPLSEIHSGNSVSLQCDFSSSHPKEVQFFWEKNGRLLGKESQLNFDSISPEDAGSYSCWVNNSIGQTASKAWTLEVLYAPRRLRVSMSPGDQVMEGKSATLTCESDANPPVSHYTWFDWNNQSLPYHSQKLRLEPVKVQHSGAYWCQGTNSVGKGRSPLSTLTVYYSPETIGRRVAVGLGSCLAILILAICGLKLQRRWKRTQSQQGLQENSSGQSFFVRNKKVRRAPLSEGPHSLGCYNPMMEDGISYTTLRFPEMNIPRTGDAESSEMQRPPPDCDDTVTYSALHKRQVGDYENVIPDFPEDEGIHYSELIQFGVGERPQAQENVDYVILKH
Outline: as §1

cynomolgus Siglec-2/CD22 = cynomolgus Siglec-2/CD22 (Macaca fascicularis, UniProt A0A2K5WCZ6); experiment: biochemical; type: binding; conditions: SPR, steady-state analysis; read-out: Affinity cyno CD22
Outline: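 SPR with desialylated (SialoExo, 4 h, 37° C.) cynomolgus CD22 amine-coupled to a CM5 chip. Running buffer 10 mM HEPES, 150 mM NaCl, 0.05% Tween-20, pH 7.5, 1% DMSO, with solvent correction; 120 s dissociation. Affinities from steady-state analysis.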

Chain of cynomolgus Siglec-2/CD22 (A0A2K5WCZ6 entry or part of it): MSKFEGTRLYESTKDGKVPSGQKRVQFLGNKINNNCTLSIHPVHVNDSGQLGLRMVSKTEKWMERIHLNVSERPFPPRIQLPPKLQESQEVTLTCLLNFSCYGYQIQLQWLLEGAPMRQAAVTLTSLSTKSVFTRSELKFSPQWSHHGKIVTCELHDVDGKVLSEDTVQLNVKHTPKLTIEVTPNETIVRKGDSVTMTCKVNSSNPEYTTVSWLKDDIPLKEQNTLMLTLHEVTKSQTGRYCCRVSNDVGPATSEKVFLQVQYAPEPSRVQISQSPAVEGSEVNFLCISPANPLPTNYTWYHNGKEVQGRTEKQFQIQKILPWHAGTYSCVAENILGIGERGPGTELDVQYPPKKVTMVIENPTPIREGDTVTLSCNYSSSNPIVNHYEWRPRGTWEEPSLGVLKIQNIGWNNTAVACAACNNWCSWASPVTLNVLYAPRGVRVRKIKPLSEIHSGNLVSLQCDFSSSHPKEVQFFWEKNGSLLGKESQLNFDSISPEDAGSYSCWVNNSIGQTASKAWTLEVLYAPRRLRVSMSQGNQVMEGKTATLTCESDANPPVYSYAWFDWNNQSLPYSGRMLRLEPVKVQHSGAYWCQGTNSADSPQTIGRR

C#CCOCCOCCO[C@]1(C(=O)O)C[C@H](O)[C@@H](NC(=O)CC#N)[C@H]([C@H](O)[C@H](O)CNC(=O)Cc2ccc(-c3ccc(O)cc3)cc2)O1 [Compound 58, (2R,4S,5R,6R)-5-(2-cyanoacetamido)-6-((1R,2R)-1,2-dihydroxy-3-(2-(4′-hydroxy-[1,1′-biphenyl]-4-yl)acetamido)propyl)-4-hydroxy-2-(2-(2-(prop-2-yn-1-yloxy)ethoxy)ethoxy)tetrahydro-2H-pyran-2-carboxylic acid]
Kd [1]: 1 to 10 µM | Kd [2]: 1 to 10 µM | Kd (cynomolgus Siglec-2/CD22): 1 to 10 µM

C#CCOc1ccccc1-c1cn([C@]2(C(=O)O)C[C@H](O)[C@@H](NC(=O)CO)[C@H]([C@H](O)[C@H](O)CNC(=O)Cc3ccc(-c4ccc(O)cc4)cc3)O2)nn1 [Compound 59, (2R,4S,5R,6R)-6-((1R,2R)-1,2-dihydroxy-3-(2-(4′-hydroxy-[1,1′-biphenyl]-4-yl)acetamido)propyl)-4-hydroxy-5-(2-hydroxyacetamido)-2-(4-(2-(prop-2-yn-1-yloxy)phenyl)-1H-1,2,3-triazol-1-yl)tetrahydro-2H-pyran-2-carboxylic acid]
Kd [1]: 1 to 10 µM | Kd [2]: < 1 µM | Kd (cynomolgus Siglec-2/CD22): 1 to 10 µM

C#CCOc1cccc(-c2cn([C@]3(C(=O)O)C[C@H](O)[C@@H](NC(=O)CO)[C@H]([C@H](O)[C@H](O)CNC(=O)Cc4ccc(-c5ccc(O)cc5)cc4)O3)nn2)c1 [Compound 60, (2R,4S,5R,6R)-6-((1R,2R)-1,2-dihydroxy-3-(2-(4′-hydroxy-[1,1′-biphenyl]-4-yl)acetamido)propyl)-4-hydroxy-5-(2-hydroxyacetamido)-2-(4-(3-(prop-2-yn-1-yloxy)phenyl)-1H-1,2,3-triazol-1-yl)tetrahydro-2H-pyran-2-carboxylic acid]
Kd [1]: 1 to 10 µM | Kd [2]: 1 to 10 µM | Kd (cynomolgus Siglec-2/CD22): 1 to 10 µM

C#CCCOc1ccc(CO[C@]2(C(=O)O)C[C@H](O)[C@@H](NC(=O)NC)[C@H]([C@H](O)[C@H](O)CNC(=O)Cc3ccc(-c4ccc(O)cc4)cc3)O2)cc1 [Compound 61, (2R,4S,5R,6R)-2-((4-(but-3-yn-1-yloxy)benzyl)oxy)-6-((1R,2R)-1,2-dihydroxy-3-(2-(4′-hydroxy-[1,1′-biphenyl]-4-yl)acetamido)propyl)-4-hydroxy-5-(3-methylureido)tetrahydro-2H-pyran-2-carboxylic acid]
Kd [1]: < 1 µM | Kd [2]: < 1 µM | Kd (cynomolgus Siglec-2/CD22): < 1 µM

C#CCOCc1cn([C@]2(C(=O)O)C[C@H](O)[C@@H](NC(=O)CO)[C@H]([C@H](O)[C@H](O)CNC(=O)Cc3ccc(-c4ccc(O)cc4)cc3)O2)nn1 [Compound 62, (2R,4S,5R,6R)-6-((1R,2R)-1,2-dihydroxy-3-(2-(4′-hydroxy-[1,1′-biphenyl]-4-yl)acetamido)propyl)-4-hydroxy-5-(2-hydroxyacetamido)-2-(4-((prop-2-yn-1-yloxy)methyl)-1H-1,2,3-triazol-1-yl)tetrahydro-2H-pyran-2-carboxylic acid]
Kd [1]: 1 to 10 µM | Kd [2]: 1 to 10 µM | Kd (cynomolgus Siglec-2/CD22): 1 to 10 µM

C#CCOCCCCCCO[C@]1(C(=O)O)C[C@H](O)[C@@H](NC(=O)CO)[C@H]([C@H](O)[C@H](O)CNC(=O)Cc2ccc(-c3ccc(O)cc3)cc2)O1 [Compound 63, (2R,4S,5R,6R)-6-((1R,2R)-1,2-dihydroxy-3-(2-(4′-hydroxy-[1,1′-biphenyl]-4-yl)acetamido)propyl)-4-hydroxy-5-(2-hydroxyacetamido)-2-((6-(prop-2-yn-1-yloxy)hexyl)oxy)tetrahydro-2H-pyran-2-carboxylic acid]
Kd [1]: < 1 µM | Kd [2]: < 1 µM | Kd (cynomolgus Siglec-2/CD22): < 1 µM

C#CCCOc1ccc(CS[C@]2(C(=O)O)C[C@H](O)[C@@H](NC(=O)CO)[C@H]([C@H](O)[C@H](O)CNC(=O)Cc3ccc(-c4ccc(O)cc4)cc3)O2)cc1 [Compound 64, (2S,4S,5R,6R)-2-((4-(but-3-yn-1-yloxy)benzyl)thio)-6-((1R,2R)-1,2-dihydroxy-3-(2-(4′-hydroxy-[1,1′-biphenyl]-4-yl)acetamido)propyl)-4-hydroxy-5-(2-hydroxyacetamido)tetrahydro-2H-pyran-2-carboxylic acid]
Kd [1]: < 1 µM | Kd [2]: < 1 µM | Kd (cynomolgus Siglec-2/CD22): < 1 µM

C#CCOCCOCCO[C@]1(C(=O)NS(C)(=O)=O)C[C@H](O)[C@@H](NC(=O)CO)[C@H]([C@H](O)[C@H](O)CNC(=O)Cc2ccc(-c3ccc(O)cc3)cc2)O1 [Compound 65, (2R,4S,5R,6R)-6-((1R,2R)-1,2-dihydroxy-3-(2-(4′-hydroxy-[1,1′-biphenyl]-4-yl)acetamido)propyl)-4-hydroxy-5-(2-hydroxyacetamido)-N-(methylsulfonyl)-2-(2-(2-(prop-2-yn-1-yloxy)ethoxy)ethoxy)tetrahydro-2H-pyran-2-carboxamide]
Kd [1]: > 10 µM | Kd [2]: > 10 µM | Kd (cynomolgus Siglec-2/CD22): > 10 µM

C#CCOCCOCCO[C@]1(C(=O)O)C[C@H](O)[C@@H](NC(=O)CO)[C@H]([C@H](O)[C@H](O)CNC(=O)Cc2ccc(-c3ccccc3)c(O)c2)O1 [Compound 66, (2R,4S,5R,6R)-6-((1R,2R)-1,2-dihydroxy-3-(2-(2-hydroxy-[1,1′-biphenyl]-4-yl)acetamido)propyl)-4-hydroxy-5-(2-hydroxyacetamido)-2-(2-(2-(prop-2-yn-1-yloxy)ethoxy)ethoxy)tetrahydro-2H-pyran-2-carboxylic acid]
Kd [1]: > 10 µM | Kd [2]: 1 to 10 µM | Kd (cynomolgus Siglec-2/CD22): > 10 µM

C#CCOCCOCCO[C@]1(C(=O)O)C[C@H](O)[C@@H](NC(=O)CO)[C@H]([C@H](O)[C@H](O)CNC(=O)Cc2ccc(-c3ccccc3)cc2O)O1 [Compound 67, (2R,4S,5R,6R)-6-((1R,2R)-1,2-dihydroxy-3-(2-(3-hydroxy-[1,1′-biphenyl]-4-yl)acetamido)propyl)-4-hydroxy-5-(2-hydroxyacetamido)-2-(2-(2-(prop-2-yn-1-yloxy)ethoxy)ethoxy)tetrahydro-2H-pyran-2-carboxylic acid]
Kd [1]: 1 to 10 µM | Kd [2]: 1 to 10 µM | Kd (cynomolgus Siglec-2/CD22): 1 to 10 µM

C#CCOCCOCCO[C@]1(C(=O)O)C[C@H](O)[C@@H](NC(=O)CO)[C@H]([C@H](O)[C@H](O)CNC(=O)Cc2ccc(-c3ccccc3O)cc2)O1 [Compound 68, (2R,4S,5R,6R)-6-((1R,2R)-1,2-dihydroxy-3-(2-(2′-hydroxy-[1,1′-biphenyl]-4-yl)acetamido)propyl)-4-hydroxy-5-(2-hydroxyacetamido)-2-(2-(2-(prop-2-yn-1-yloxy)ethoxy)ethoxy)tetrahydro-2H-pyran-2-carboxylic acid]
Kd [1]: 1 to 10 µM | Kd [2]: < 1 µM | Kd (cynomolgus Siglec-2/CD22): 1 to 10 µM

C#CCOCCOCCO[C@]1(C(=O)O)C[C@H](O)[C@@H](NC(=O)CS)[C@H]([C@H](O)[C@H](O)CNC(=O)Cc2ccc(-c3ccc(O)cc3)cc2)O1 [Compound 69, (2R,4S,5R,6R)-6-((1R,2R)-1,2-dihydroxy-3-(2-(4′-hydroxy-[1,1′-biphenyl]-4-yl)acetamido)propyl)-4-hydroxy-5-(2-mercaptoacetamido)-2-(2-(2-(prop-2-yn-1-yloxy)ethoxy)ethoxy)tetrahydro-2H-pyran-2-carboxylic acid]
Kd [1]: > 10 µM | Kd [2]: 1 to 10 µM | Kd (cynomolgus Siglec-2/CD22): > 10 µM
